Consider 65 compounds from the OPERA property sets (Mansouri et al. 2018).

One may read the logP as a log measure of how a compound divides between an organic and an aqueous phase.

Each structure is given as a SMILES string.

Turning to `O=[N+]([O-])c1nonc1-c1ccccc1`, the logP is 2.63.
With `COC(=O)c1no[n+]([O-])c1C` the figure was 0.56; with `[O-][n+]1onc(-c2ccccc2)c1Cl`, 2.7; with `CCCc1nonc1C`, 1.71.
For the compound `Cc1no[n+]([O-])c1S(=O)c1ccccc1` (stereo not given), the logP worked out at 1.75. This logP and that of the compound before are within 0.2 log units of each other.
The compound `c1ccc(-c2nonc2-c2ccccc2)cc1` yielded a logP of 3.83.
Next, `COC(=O)Nc1nonc1C`: 0.42.
Next, `Cc1nonc1[N+](=O)[O-]`: 0.97; `Cc1c(N)no[n+]1[O-]`: -0.17.
`Cc1n[se]nc1C` yielded a lipophilicity (logP) of 0.89.
Next, `Clc1nonc1-c1ccccc1`: 3.2; `Cc1no[n+]([O-])c1N`: -0.32; `Nc1c(-c2ccccc2)no[n+]1[O-]`: 1.42.
In turn, `Cc1no[n+]([O-])c1Sc1ccccc1` had a logP of 2.74.
With `Cc1c(-c2ccccc2)no[n+]1[O-]` the figure was 2.17; with `Cc1c(C(N)=O)no[n+]1[O-]`, 0.03.
As to `Cc1no[n+]([O-])c1C=O`, the logP amounted to 1.29.
Compound `[O-][n+]1onc(CO)c1-c1ccccc1` gave a logP of 1.64.
`Cc1no[n+]([O-])c1C` displayed a logP of 0.23.
The compound `Cc1c(Cc2ccccc2)no[n+]1[O-]` came in with a logP of 2.08.
With `[O-][n+]1onc(Cc2ccccc2)c1Cc1ccccc1` the figure was 3.65; with `Cc1c(S(=O)(=O)c2ccccc2)no[n+]1[O-]`, 2.03.
Next, `COC(=O)c1nonc1C`: 0.94; `Cc1c(Sc2ccccc2)no[n+]1[O-]`: 2.63.
With `[O-][n+]1onc(Cl)c1-c1ccccc1` the figure was 2.82; with `OCc1nonc1-c1ccccc1`, 1.92.
With `Cc1nonc1S(=O)(=O)c1ccccc1`, the logP worked out at 2.36.
With `Cc1no[n+]([O-])c1-c1ccccc1` the figure was 2.16; with `c1cnon1`, 0.16; with `Cc1no[n+]([O-])c1Cl`, 0.9.
Compound `CCc1nonc1C` returned a logP of 1.18.
With `Cc1nonc1C(N)=O` the figure was 0.31; with `[O-][n+]1onc2ccccc21`, 1.43; with `Nc1nonc1-c1ccccc1`, 1.81.
With `O=Cc1no[n+]([O-])c1-c1ccccc1` the figure was 2.61.
With `Cc1no[n+]([O-])c1C(N)=O` the figure was 0.36; with `Nc1nonc1N`, -0.49.
As to `Cc1nonc1Sc1ccccc1`, the logP worked out at 2.92.
With `Nc1nonc1NC(=O)c1ccccc1` the figure was 1.41; with `Cc1nonc1C`, 0.71; with `COC(=O)c1c(C)no[n+]1[O-]`, 0.69.
With `Cc1nonc1S(=O)c1ccccc1` (stereo not given) the figure was 1.76.
With `Nc1no[n+]([O-])c1-c1ccccc1` the figure was 1.47; with `CNC(=O)Nc1nonc1C`, 0.3.
In turn, `Cc1nonc1N` yielded a logP of 0.09.
In the case of `Cc1no[n+]([O-])c1Cc1ccccc1`, the logP was 2.22.
With `c1ccc2nonc2c1` the figure was 1.69.
With `[O-][n+]1onc(-c2ccccc2)c1-c1ccccc1` the figure was 3.64; with `Cc1no[n+]([O-])c1S(=O)(=O)c1ccccc1`, 2.26; with `CNC(=O)c1nonc1C`, 0.56.
With `c1ccc2n[se]nc2c1` the figure was 1.64; with `CCS(=O)(=O)c1no[n+]([O-])c1C`, 0.65; with `CC(=O)c1no[n+]([O-])c1C`, 0.8.
In turn, `O=Cc1c(-c2ccccc2)no[n+]1[O-]` returned a logP of 2.92.
Next, `CC(=O)Nc1nonc1C`: 0.17; `c1ccc2nsnc2c1`: 1.98.
Next, `Cc1nsnc1C`: 1.28; `CC(=O)Nc1nonc1N`: -0.23.
With `Cc1c(C=O)no[n+]1[O-]`, the logP was found to be 1.02.
Next, `Cc1nonc1-c1ccccc1[N+](=O)[O-]`: 2.21.
Turning to `Cc1nonc1-c1ccccc1`, the logP is 2.59.
Next, `CC(=O)c1c(C)no[n+]1[O-]`: 0.98.
Next, `Cc1c(S(=O)c2ccccc2)no[n+]1[O-]` (stereo not given): 1.5; `Cc1c(Cl)no[n+]1[O-]`: 1.02.
With `[O-][n+]1onc(-c2ccccc2)c1CO` the figure was 1.77.
